Data reported in article PMC2631656 (Journal of medicinal chemistry, 2008).
Read-outs that look alike come from different tables or passages of the source.

Key:
[1] = system: PSMA^+ PC-3 PIP and PC-3 flu xenografts; assay: PET-CT imaging, PC-3 PIP and PC-3 flu xenografts; type: in vivo; conditions: dynamic scan 94-120 min p.i., i.v.
[2] = system: PC-3 PIP (PSMA^+) and PC-3 flu (PSMA^-) xenografts

Q: Which “uptake pattern on PET” value [1] does the source give for `O=C(O)CCC(NC(=O)NC(CCCCNC(=O)c1ccc([18F])cc1)C(=O)O)C(=O)O` (stereo not drawn) [Compound [^18F]6, 2-[3-[1-carboxy-5-(4-[^18F]fluoro-benzoylamino)-pentyl]-ureido]-pentanedioic acid] here?
A: Its value is “easily observed within PSMA^+ PIP tumor, none within flu tumor, high renal uptake and a modest degree of liver uptake”.

Q: What about the “uptake in PC-3 PIP tumor” value ([2]; 30 min p.i.) of the same compound?
A: Its value is 8.6 ± 3.1 % ID/g.

Q: What about the “uptake in PC-3 flu tumor” value ([2]; 30 min p.i.) of the same compound?
A: The value was 0.8 ± 0.3 % ID/g.

Q: And the uptake in bladder ([2]; 30 min p.i.)?
A: Its uptake in bladder is 6.8 ± 3.5 % ID/g.

Q: And the uptake in blood ([2]; 30 min p.i.)?
A: The uptake in blood was 2.5 ± 1.7 % ID/g.

Q: And the uptake in heart ([2]; 30 min p.i.)?
A: The uptake in heart was 0.8 ± 0.1 % ID/g.

Q: What about the uptake in kidney ([2]; 30 min p.i.) of the same compound?
A: Its uptake in kidney is 72 ± 3 % ID/g.

Q: And the “uptake in large int.” value ([2]; 30 min p.i.)?
A: Its value is 1.2 ± 0.8 % ID/g.

Q: And the uptake in liver ([2]; 30 min p.i.)?
A: The uptake in liver was 8.7 ± 1.8 % ID/g.

Q: And the uptake in lung ([2]; 30 min p.i.)?
A: Its uptake in lung is 1.7 ± 0.3 % ID/g.

Q: And the uptake in muscle ([2]; 30 min p.i.)?
A: Its uptake in muscle is 2.4 ± 3.1 % ID/g.

Q: What about the uptake in pancreas ([2]; 30 min p.i.) of the same compound?
A: Its uptake in pancreas is 0.8± 0.1 % ID/g.

Q: What about the “uptake in small int.” value ([2]; 30 min p.i.) of the same compound?
A: Its value is 1.7 ± 0.7 % ID/g.

Q: What about the uptake in spleen ([2]; 30 min p.i.) of the same compound?
A: Its uptake in spleen is 12.7 ± 0.4 % ID/g.

Q: And the uptake in stomach ([2]; 30 min p.i.)?
A: Its uptake in stomach is 0.8 ± 0.1 % ID/g.

Q: And the “uptake in PC-3 PIP tumor” value ([2]; 60 min p.i.)?
A: The value was 6.4 ± 0.9 % ID/g.

Q: And the uptake in bladder ([2]; 60 min p.i.)?
A: The uptake in bladder was 17 ± 21 % ID/g.

Q: What about the uptake in heart ([2]; 60 min p.i.) of the same compound?
A: The uptake in heart was 0.2 ± 0.02 % ID/g.

Q: And the uptake in kidney ([2]; 60 min p.i.)?
A: The uptake in kidney was 48 ± 5 % ID/g.

Q: And the “uptake in large int.” value ([2]; 60 min p.i.)?
A: The value was 0.5 ± 0.1 % ID/g.

Q: And the uptake in liver ([2]; 60 min p.i.)?
A: Its uptake in liver is 5.8 ± 0.6 % ID/g.

Q: What about the uptake in lung ([2]; 60 min p.i.) of the same compound?
A: The uptake in lung was 0.5 ± 0.1 % ID/g.

Q: And the uptake in muscle ([2]; 60 min p.i.)?
A: The uptake in muscle was 0.5 ± 0.7 % ID/g.

Q: What about the “uptake in small int.” value ([2]; 60 min p.i.) of the same compound?
A: Its value is 0.6 ± 0.2 % ID/g.

Q: What about the uptake in spleen ([2]; 60 min p.i.) of the same compound?
A: Its uptake in spleen is 7.2 ± 1.6 % ID/g.

Q: And the uptake in stomach ([2]; 60 min p.i.)?
A: Its uptake in stomach is 0.25 ± 0.1 % ID/g.

Q: What about the “uptake in PC-3 PIP tumor” value ([2]; 2 h p.i.) of the same compound?
A: The value was 3.7 ± 1.2 % ID/g.

Q: And the “uptake in PC-3 flu tumor” value ([2]; 2 h p.i.)?
A: Its value is 0.25 ± 0.1 % ID/g.

Q: And the uptake in heart ([2]; 2 h p.i.)?
A: The uptake in heart was 0.15 ± 0.05 % ID/g.

Q: And the uptake in kidney ([2]; 2 h p.i.)?
A: The uptake in kidney was 29 ± 12 % ID/g.

Q: What about the “uptake in large int.” value ([2]; 2 h p.i.) of the same compound?
A: Its value is 0.2 ± 0.1 % ID/g.

Q: What about the uptake in liver ([2]; 2 h p.i.) of the same compound?
A: The uptake in liver was 11.7 ± 7.0 % ID/g.

Q: And the uptake in muscle ([2]; 2 h p.i.)?
A: Its uptake in muscle is 0.2 ± 0.1 % ID/g.

Q: And the uptake in pancreas ([2]; 2 h p.i.)?
A: The uptake in pancreas was 0.15 ± 0.03 % ID/g.

Q: What about the uptake in spleen ([2]; 2 h p.i.) of the same compound?
A: The uptake in spleen was 4.4 ± 1.2 % ID/g.

Q: And the uptake in bladder ([2]; 5 h p.i.)?
A: The uptake in bladder was 5.2 ± 8.9 % ID/g.

Q: And the uptake in blood ([2]; 5 h p.i.)?
A: The uptake in blood was 0.03 ± 0.00 % ID/g.

Q: What about the uptake in heart ([2]; 5 h p.i.) of the same compound?
A: Its uptake in heart is 0.03 ± 0.01 % ID/g.

Q: What about the uptake in kidney ([2]; 5 h p.i.) of the same compound?
A: The uptake in kidney was 14 ± 9 % ID/g.

Q: What about the “uptake in large int.” value ([2]; 5 h p.i.) of the same compound?
A: Its value is 0.6 ± 0.6 % ID/g.

Q: And the uptake in pancreas ([2]; 5 h p.i.)?
A: The uptake in pancreas was 0.05 ± 0.03 % ID/g.

Q: And the uptake in stomach ([2]; 5 h p.i.)?
A: Its uptake in stomach is 0.04 ± 0.02 % ID/g.
